Measured values: patent US5521184A, “Pyrimidine derivatives and processes for the preparation thereof” (Ciba-Geigy Corporation, priority 1992, dated 1996)

Tests used:
[1] = system: human T24 bladder carcinoma; experiment: tumour-inhibiting activity in nude mice with transplanted human T24 bladder carcinoma; assay type: in vivo, female Balb/c nude mice; settings: perorally or intraperitoneally once daily for 15 days
Experimental: The tumour-inhibiting activity is determined using female Balb/c nude mice in which human T24 bladder carcinoma has been transplanted. On day 0, a c. 25 mg piece of solid tumour is transplanted subcutaneously under peroral "forene" narcosis on the left flank and the small incision wound is closed with a suture clip. On day 6 after the tumour transplantation, the mice are randomised in groups of 6 animals and treatment is commenced. The treatment is carded out for 15 days by administering a compound of formula I, e.g. N-[3-(1,1,2,2-Tetrafluoroethoxy)phenyl]-4-(4-pyridyl)-2-pyrimidine-amine, in dimethyl sulfoxide/Tween 80/sodium chloride solution in the different doses perorally or intraperitoneally once daily. The tumours are measured twice weekly with a sliding caliper and the tumour volume determined.

[2] = system: p34^cdc2 /cyclin B^cdc13 kinase; experiment: p34cdc2/cyclin Bcdc13 kinase assay with histone H1 as substrate; assay type: biochemical, starfish
Experimental: Starfish oocytes are induced to enter M phase with 10 μM 1-methyladenine, frozen in liquid nitrogen and stored at -80° C. When required the oocytes are homogenized and centrifuged as described by D. Arion et al., Cell 55, 371-378 (1988) and V. Rialet und L. Meijer, Anticancer Res. 11, 1581-1590 (1991). For purification of p34^cdc2 /cyclin B^cdc13 kinase, the supernatant of oocytes is added to p9^CKShs -sepharose beads prepared from recombinant human p9^CKShsas described by L. Azzi et al., Eur. J. Biochem. 203, 353-360 (1992). After 30 minutes at 4° C. under constant rotation, the beads are extensively washed and active p34^cdc2 /cyclin B^cdc13 kinase is eluted with free p9^CKShs (3 mg/ml). The eluted kinase is assayed using histone H1 as a substrate as described by L. Meijer et al., EMBO J. 8, 2275-2282 (1989) und EMBO J. 10, 1545-1554 (1991). The reaction mixture contains 10 μl p34^cdc2 /cyclin B^cdc13 kinase, 5 μl histone H1, type III-S (5 mg/ml) and 10 μl buffer C. The reaction is started by addition of 5 μl [γ-^32 P]ATP (75 μM, 8800 cpm/pmole) and incubated for 10 minutes at 30° C. The assay is terminated by transferring 25 μl on pieces of Whatman P81 phosphocellulose paper. After 20 seconds the papers are washed 6 times with each 10 ml of 1% phosphoric acid for 5 minutes, dried and counted in a scintillation counter.

[3] = biological target: EGF-receptor-specific protein tyrosine kinase (EGF-R-PTK) (Homo sapiens, UniProt P00533); experiment: inhibition of the EGF-receptor-specific protein tyrosine kinase (EGF-R-PTK); assay type: biochemical
From the text: J. Biochem. 207, 265-275 (1992).

Sequence of EGF-receptor-specific protein tyrosine kinase (EGF-R-PTK) (P00533 669-1210 limits assumed): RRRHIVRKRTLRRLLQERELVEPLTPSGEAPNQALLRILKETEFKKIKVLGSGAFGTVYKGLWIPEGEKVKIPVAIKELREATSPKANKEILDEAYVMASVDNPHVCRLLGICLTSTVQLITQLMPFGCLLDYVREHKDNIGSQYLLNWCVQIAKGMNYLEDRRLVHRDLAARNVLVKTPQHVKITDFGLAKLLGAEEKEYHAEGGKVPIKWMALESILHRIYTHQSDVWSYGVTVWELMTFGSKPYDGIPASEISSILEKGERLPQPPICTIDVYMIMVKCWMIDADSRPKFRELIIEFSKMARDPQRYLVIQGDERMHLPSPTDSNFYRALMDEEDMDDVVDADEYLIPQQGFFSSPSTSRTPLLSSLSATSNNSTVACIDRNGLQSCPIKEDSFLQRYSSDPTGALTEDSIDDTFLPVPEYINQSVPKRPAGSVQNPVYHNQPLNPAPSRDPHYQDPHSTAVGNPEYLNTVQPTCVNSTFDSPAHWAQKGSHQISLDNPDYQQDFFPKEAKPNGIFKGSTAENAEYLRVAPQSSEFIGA

inhibition of p34cdc2/cyclin Bcdc13 kinase [2] | IC50 ([2]; histone H1 substrate) [nM] | inhibition of the tyrosine kinase activity of the receptor for EGF [3] | SMILES | average tumour volume compared with the untreated controls [1]
inhibit | 80 | – | FC(F)C(F)(F)Oc1cccc(Nc2nccc(-c3ccncc3)n2)c1 [Example 32, N-[3-(1,1,2,2-tetrafluoroethoxy)phenyl]-4-(4-pyridyl)-2-pyrimidine-amine] | marked reduction in the average tumour volume
– | – | inhibit the tyrosine kinase activity | FC(F)C(F)(F)Oc1cccc(Nc2nccc(-c3c[nH]c4ccccc34)n2)c1 [Example 33, N-[3-(1,1,2,2-tetrafluoroethoxy)phenyl]-4-(3-indolyl)-2-pyrimidine-amine] | –
